Measurements reported in article PMC3171608 (Bioorganic & medicinal chemistry, 2011).

Legend:
[1] = test system: other kinesin family members; conditions: cited from earlier work
[2] = molecular target: mammalian centromere-associated kinesin (MCAK) (Homo sapiens, UniProt Q99661); test: Kinesin ATPase selectivity panel, MCAK; assay type: biochemical; conditions: panel of mitotic kinesins; data not shown
[3] = molecular target: T1, centromeric protein E (CENP-E) (Homo sapiens, UniProt Q02224); test: Kinesin ATPase selectivity panel, CENP-E; assay type: biochemical; conditions: panel of mitotic kinesins; data not shown
T1 sequence (Q02224 6-329 limits assumed): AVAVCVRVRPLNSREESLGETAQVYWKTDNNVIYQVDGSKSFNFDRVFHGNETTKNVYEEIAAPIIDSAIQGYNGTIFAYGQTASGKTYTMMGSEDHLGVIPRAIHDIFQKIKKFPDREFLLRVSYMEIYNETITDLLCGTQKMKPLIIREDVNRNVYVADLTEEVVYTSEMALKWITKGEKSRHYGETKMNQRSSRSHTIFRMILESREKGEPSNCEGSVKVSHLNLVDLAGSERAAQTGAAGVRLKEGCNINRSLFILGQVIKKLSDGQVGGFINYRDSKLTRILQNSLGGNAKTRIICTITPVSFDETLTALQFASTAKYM

HeLa cells = test: Phenotypic assay in cultured HeLa cells; assay type: cell-based, human; conditions: 1 μM compound
chromokinesin = conditions: panel of mitotic kinesins; data not shown
NCI60 tumor panel = NCI60 tumor panel growth inhibition; conditions: for GI50: read-out: Average GI50 in leukemia and colon tumor cell lines
M14 = test: NCI60 growth inhibition, M14; assay type: cell-based; conditions: melanoma M14, GI50

Sequence of mammalian centromere-associated kinesin (MCAK) (Q99661 258-588 limits assumed): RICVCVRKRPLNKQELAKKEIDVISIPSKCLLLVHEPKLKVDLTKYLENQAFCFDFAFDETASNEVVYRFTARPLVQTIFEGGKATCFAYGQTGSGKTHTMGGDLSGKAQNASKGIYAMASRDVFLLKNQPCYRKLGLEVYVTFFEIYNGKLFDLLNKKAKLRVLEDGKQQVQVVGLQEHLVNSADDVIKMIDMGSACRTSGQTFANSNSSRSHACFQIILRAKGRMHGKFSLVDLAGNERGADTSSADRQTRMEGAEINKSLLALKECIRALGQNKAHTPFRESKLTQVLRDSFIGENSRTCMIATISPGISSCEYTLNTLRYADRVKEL

| Inhibitory activity against MCAK [2] | Inhibitory activity against CENP-E [3] | Structure (SMILES) | Activity against other kinesin family members [1] | Interphase microtubule morphology (HeLa cells) | Inhibitory activity against chromokinesin (chromokinesin) | GI50 (NCI60 tumor panel) [nM] | Fold increase in activity over monastrol (M14) [fold] | Average fold increase in potency over 1 (NCI60 tumor panel; NCI60 panel GI50) [fold] | Average fold increase in potency over Monastrol (NCI60 tumor panel; NCI60 panel GI50) [fold] |
| --- | --- | --- | --- | --- | --- | --- | --- | --- | --- |
|  |  | N[C@@H](CSC(c1ccccc1)(c1ccccc1)c1ccccc1)C(=O)O [Compound 1, S-trityl-L-cysteine] | no activity |  |  |  |  |  |  |
| no measurable inhibition detected | no measurable inhibition detected | N[C@H](CO)CSC(c1ccccc1)(c1ccccc1)c1ccccc1 [Compound 4, (R)-2-amino-3-(tritylthio)propan-1-ol] |  | normal |  |  |  |  |  |
| no measurable inhibition detected | no measurable inhibition detected | COc1ccc(C(SC[C@H](N)CO)(c2ccccc2)c2ccccc2)cc1 [Compound 5, (R)-2-amino-3-((4-methoxyphenyl)diphenylmethylthio)propan-1-ol] |  | normal | no measurable inhibition detected | ≤ 230 |  |  |  |
|  |  | COc1ccc(C(SCCN)(c2ccccc2)c2ccccc2)cc1 [Compound 7] |  | normal |  | ≤ 230 | 1200 | ~35 | ~143 |
